In ChEMBL document CHEMBL5537145, “Design, synthesis and evaluation of novel UDCA-aminopyrimidine hybrids as ATX inhibitors for the treatment of hepatic and pulmonary fibrosis” (Eur J Med Chem, 2024):
Activity calls are given as the source filed them. The calls are words filed in the database; no cut-off is given here.

Experiments:
Autotaxin [1] = molecular target: T1, Autotaxin (Homo sapiens, UniProt Q13822); assay: Inhibition of human ATX in using LPC as substrate by fluorescence based microplate reader assay
Autotaxin [2] = molecular target: T1, Autotaxin; assay: Potency index, ratio of GLPG-1690 IC50 to test compound IC50 for inhibition of human ATX in using LPC as substrate by fluorescence based microplate reader assay
LX-2 [3] = assay: Cytotoxicity against human LX2 cells assessed as reduction in cell viability at 2.5 to 80 uM incubated for 48 hrs by MTT assay; assay type: toxicity, cell-based; settings: lx-2, 48 h, dose 2.5-80 µM
CCC-HPF-1 [4] = assay: Cytotoxicity against human CCC-HPF-1 cells assessed as reduction in cell viability at 2.5 to 80 uM incubated for 48 hrs by MTT assay; assay type: toxicity, cell-based; settings: ccc-hpf-1, 48 h, dose 2.5-80 µM
LX-2 [5] = assay: Anti-hepatic fibrosis activity against TGF-beta1 stimulated human LX2 cells assessed as reduction in alpha-SMA mRNA expression level at 5 to 20 uM incubated for 48 hrs by quantitative real-time PCR analysis; assay type: functional, cell-based; settings: dose 5-20 µM
LX-2 [6] = assay: Anti-hepatic fibrosis activity against TGF-beta1 stimulated human LX2 cells assessed as reduction in COL1A1 mRNA expression level at 5 to 20 uM incubated for 48 hrs by quantitative real-time PCR analysis; assay type: functional, cell-based; settings: dose 5-20 µM
LX-2 [7] = assay: Anti-hepatic fibrosis activity against TGF-beta1 stimulated human LX2 cells assessed as reduction in FN mRNA expression level at 5 to 20 uM incubated for 48 hrs by quantitative real-time PCR analysis; assay type: functional, cell-based; settings: dose 5-20 µM
CCC-HPF-1 [8] = assay: Anti-pulmonary fibrosis activity against TGF-beta1 stimulated human CCC-HPF-1 cells assessed as reduction in alpha-SMA mRNA expression level at 5 to 20 uM incubated for 48 hrs by quantitative real-time PCR analysis; assay type: functional, cell-based; settings: dose 5-20 µM
CCC-HPF-1 [9] = assay: Anti-pulmonary fibrosis activity against TGF-beta1 stimulated human CCC-HPF-1 cells assessed as reduction in COL1A1 mRNA expression level at 5 to 20 uM incubated for 48 hrs by quantitative real-time PCR analysis; assay type: functional, cell-based; settings: dose 5-20 µM
CCC-HPF-1 [10] = assay: Anti-pulmonary fibrosis activity against TGF-beta1 stimulated human CCC-HPF-1 cells assessed as reduction in FN mRNA expression level at 5 to 20 uM incubated for 48 hrs by quantitative real-time PCR analysis; assay type: functional, cell-based; settings: dose 5-20 µM
LX-2 [11] = assay: Anti-hepatic fibrosis activity against TGF-beta1 stimulated human LX2 cells assessed as reduction in alpha-SMA protein expression level at 5 to 20 uM incubated for 48 hrs by Western blotting analysis; assay type: functional, cell-based; settings: dose 5-20 µM
LX-2 [12] = assay: Anti-hepatic fibrosis activity against TGF-beta1 stimulated human LX2 cells assessed as reduction in COL1A1 protein expression level at 5 to 20 uM incubated for 48 hrs by Western blotting analysis; assay type: functional, cell-based; settings: dose 5-20 µM
LX-2 [13] = assay: Anti-hepatic fibrosis activity against TGF-beta1 stimulated human LX2 cells assessed as reduction in FN protein expression level at 5 to 20 uM incubated for 48 hrs by Western blotting analysis; assay type: functional, cell-based; settings: dose 5-20 µM
CCC-HPF-1 [14] = assay: Anti-pulmonary fibrosis activity against TGF-beta1 stimulated human CCC-HPF-1 cells assessed as reduction in alpha-SMA protein expression level at 5 to 20 uM incubated for 48 hrs by Western blotting analysis; assay type: functional, cell-based; settings: dose 5-20 µM
CCC-HPF-1 [15] = assay: Anti-pulmonary fibrosis activity against TGF-beta1 stimulated human CCC-HPF-1 cells assessed as reduction in COL1A1 protein expression level at 5 to 20 uM incubated for 48 hrs by Western blotting analysis; assay type: functional, cell-based; settings: dose 5-20 µM
CCC-HPF-1 [16] = assay: Anti-pulmonary fibrosis activity against TGF-beta1 stimulated human CCC-HPF-1 cells assessed as reduction in FN protein expression level at 5 to 20 uM incubated for 48 hrs by Western blotting analysis; assay type: functional, cell-based; settings: dose 5-20 µM
LX-2 [17] = assay: Anti-migratory activity against TGF-beta1 stimulated human LX2 cells at 10 uM incubated for 24 hrs by light microscopic analysis; assay type: functional, cell-based
CCC-HPF-1 [18] = assay: Anti-migratory activity against TGF-beta1 stimulated human CCC-HPF-1 cells at 10 uM incubated for 24 hrs by light microscopic analysis; assay type: functional, cell-based
LX-2 [19] = assay: Anti-hepatic fibrosis activity against TGF-beta1 stimulated human LX2 cells assessed as reduction in Smad2 phosphorylation incubated for 48 hrs by Western blotting analysis; assay type: functional, cell-based; settings: dose 5-20 µM
LX-2 [20] = assay: Anti-hepatic fibrosis activity against TGF-beta1 stimulated human LX2 cells assessed as reduction in Smad3 phosphorylation incubated for 48 hrs by Western blotting analysis; assay type: functional, cell-based; settings: dose 5-20 µM
CCC-HPF-1 [21] = assay: Anti-pulmonary fibrosis activity against TGF-beta1 stimulated human CCC-HPF-1 cells assessed as reduction in Smad2 phosphorylation incubated for 48 hrs by Western blotting analysis; assay type: functional, cell-based; settings: dose 5-20 µM
CCC-HPF-1 [22] = assay: Anti-pulmonary fibrosis activity against TGF-beta1 stimulated human CCC-HPF-1 cells assessed as reduction in Smad3 phosphorylation incubated for 48 hrs by Western blotting analysis; assay type: functional, cell-based; settings: dose 5-20 µM
LX-2 [23] = assay: Effect on total Smad2 level in TGF-beta1 stimulated human LX2 cells at 5 to 20 uM incubated for 48 hrs by Western blotting analysis; assay type: functional, cell-based; settings: dose 5-20 µM
LX-2 [24] = assay: Effect on total Smad3 level in TGF-beta1 stimulated human LX2 cells at 5 to 20 uM incubated for 48 hrs by Western blotting analysis; assay type: functional, cell-based; settings: dose 5-20 µM
CCC-HPF-1 [25] = assay: Effect on total Smad2 level in TGF-beta1 stimulated human CCC-HPF-1 cells at 5 to 20 uM incubated for 48 hrs by Western blotting analysis; assay type: functional, cell-based; settings: dose 5-20 µM
CCC-HPF-1 [26] = assay: Effect on total Smad3 level in TGF-beta1 stimulated human CCC-HPF-1 cells at 5 to 20 uM incubated for 48 hrs by Western blotting analysis; assay type: functional, cell-based; settings: dose 5-20 µM
LX-2 [27] = assay: Anti-hepatic fibrosis activity against TGF-beta1 stimulated human LX2 cells assessed as inhibition of Smad2/3 nuclear translocation at 10 uM incubated for 48 hrs by DAPI staining based immunofluorescence analysis; assay type: functional, cell-based
CCC-HPF-1 [28] = assay: Anti-pulmonary fibrosis activity against TGF-beta1 stimulated human CCC-HPF-1 cells assessed as inhibition of Smad2/3 nuclear translocation at 10 uM incubated for 48 hrs by DAPI staining based immunofluorescence analysis; assay type: functional, cell-based

Cc1ccc(CCNc2ncc3c(n2)CCN(C(=O)CC[C@@H](C)[C@H]2CC[C@H]4[C@@H]5[C@@H](O)C[C@@H]6C[C@H](O)CC[C@]6(C)[C@H]5CC[C@]24C)C3)cc1
IC50 (Autotaxin [1]): 168 nM

C[C@H](CCC(=O)O)[C@H]1CC[C@H]2[C@@H]3[C@@H](O)C[C@@H]4C[C@H](O)CC[C@]4(C)[C@H]3CC[C@]12C [URSODIOL]
IC50 (Autotaxin [1]): 9260 nM

C[C@H](CCC(=O)N1CCc2nc(NC3Cc4ccccc4C3)ncc2C1)[C@H]1CC[C@H]2[C@@H]3[C@@H](O)C[C@@H]4C[C@H](O)CC[C@]4(C)[C@H]3CC[C@]12C
IC50 (Autotaxin [1]): 7.62 nM | Ratio IC50 (Autotaxin [2]): 9 | Activity (LX-2 [3]): Non-Toxic | Activity (CCC-HPF-1 [4]): Non-Toxic | Activity (LX-2 [5]): Active | Activity (LX-2 [6]): Active | Activity (LX-2 [7]): Active | Activity (CCC-HPF-1 [8]): Active | Activity (CCC-HPF-1 [9]): Active | Activity (CCC-HPF-1 [10]): Active | Activity (LX-2 [11]): Active | Activity (LX-2 [12]): Active | Activity (LX-2 [13]): Active | Activity (CCC-HPF-1 [14]): Active | Activity (CCC-HPF-1 [15]): Active | Activity (CCC-HPF-1 [16]): Active | Activity (LX-2 [17]): Active | Activity (CCC-HPF-1 [18]): Active | Activity (LX-2 [19]): Dose-Dependent Effect | Activity (LX-2 [20]): Dose-Dependent Effect | Activity (CCC-HPF-1 [21]): Dose-Dependent Effect | Activity (CCC-HPF-1 [22]): Dose-Dependent Effect | Activity (LX-2 [23]): inactive | Activity (LX-2 [24]): inactive | Activity (CCC-HPF-1 [25]): inactive | Activity (CCC-HPF-1 [26]): inactive | Activity (LX-2 [27]): Active | Activity (CCC-HPF-1 [28]): Active

C[C@H](CCC(=O)N1CCc2nc(NCCc3ccncc3)ncc2C1)[C@H]1CC[C@H]2[C@@H]3[C@@H](O)C[C@@H]4C[C@H](O)CC[C@]4(C)[C@H]3CC[C@]12C
IC50 (Autotaxin [1]): 35.6 nM

C[C@H](CCC(=O)N1CCc2nc(NCc3ccc(Br)cc3)ncc2C1)[C@H]1CC[C@H]2[C@@H]3[C@@H](O)C[C@@H]4C[C@H](O)CC[C@]4(C)[C@H]3CC[C@]12C
IC50 (Autotaxin [1]): 243 nM

C[C@H](CCC(=O)N1CCc2nc(NCCc3ccccc3Br)ncc2C1)[C@H]1CC[C@H]2[C@@H]3[C@@H](O)C[C@@H]4C[C@H](O)CC[C@]4(C)[C@H]3CC[C@]12C
IC50 (Autotaxin [1]): 92.5 nM

C[C@H](CCC(=O)N1Cc2cnc(NC3Cc4ccccc4C3)nc2C1)[C@H]1CC[C@H]2[C@@H]3[C@@H](O)C[C@@H]4C[C@H](O)CC[C@]4(C)[C@H]3CC[C@]12C
IC50 (Autotaxin [1]): 438 nM

C[C@H](CCC(=O)N1CCc2nc(NCCc3ccccc3Cl)ncc2C1)[C@H]1CC[C@H]2[C@@H]3[C@@H](O)C[C@@H]4C[C@H](O)CC[C@]4(C)[C@H]3CC[C@]12C
IC50 (Autotaxin [1]): 102 nM

C[C@H](CCC(=O)N1CCc2nc(NCCc3ccccc3)ncc2C1)[C@H]1CC[C@H]2[C@@H]3[C@@H](O)C[C@@H]4C[C@H](O)CC[C@]4(C)[C@H]3CC[C@]12C
IC50 (Autotaxin [1]): 57.8 nM

C[C@H](CCC(=O)N1CCc2nc(NCCCc3ccccc3)ncc2C1)[C@H]1CC[C@H]2[C@@H]3[C@@H](O)C[C@@H]4C[C@H](O)CC[C@]4(C)[C@H]3CC[C@]12C
IC50 (Autotaxin [1]): 165 nM

C[C@H](CCC(=O)N1CCc2nc(NCCc3c[nH]c4ccccc34)ncc2C1)[C@H]1CC[C@H]2[C@@H]3[C@@H](O)C[C@@H]4C[C@H](O)CC[C@]4(C)[C@H]3CC[C@]12C
IC50 (Autotaxin [1]): 335 nM
